Data as given in patent US9181232B2, “Difluoro-hexahydro-cyclopentaoxazinyls and difluoro-hexahydro-benzooxazinyls as BACE1 inhibitors” (Hoffmann-La Roche Inc., priority 2012, dated 2015).

Columns and labels:
BACE1 = target: T1, BACE1 (Homo sapiens, UniProt P56817); assay: Cellular Aβ-lowering assay (Aβ40 ELISA, HEK293 cells expressing human APP695); type: cell-based; settings: HEK293 cells stably expressing human APP695; Aβ40 in supernatant after 18-20 hrs; read-out: BACE1 cell act. Aβ40 IC50
T1 construct: Human HEK293 cells which are stably transfected with a vector expressing a cDNA of the human APP wt gene (APP695); endogenous in cells; host or cells: HEK293 stably expressing human APP695 wt
T1 sequence (P56817 46-501): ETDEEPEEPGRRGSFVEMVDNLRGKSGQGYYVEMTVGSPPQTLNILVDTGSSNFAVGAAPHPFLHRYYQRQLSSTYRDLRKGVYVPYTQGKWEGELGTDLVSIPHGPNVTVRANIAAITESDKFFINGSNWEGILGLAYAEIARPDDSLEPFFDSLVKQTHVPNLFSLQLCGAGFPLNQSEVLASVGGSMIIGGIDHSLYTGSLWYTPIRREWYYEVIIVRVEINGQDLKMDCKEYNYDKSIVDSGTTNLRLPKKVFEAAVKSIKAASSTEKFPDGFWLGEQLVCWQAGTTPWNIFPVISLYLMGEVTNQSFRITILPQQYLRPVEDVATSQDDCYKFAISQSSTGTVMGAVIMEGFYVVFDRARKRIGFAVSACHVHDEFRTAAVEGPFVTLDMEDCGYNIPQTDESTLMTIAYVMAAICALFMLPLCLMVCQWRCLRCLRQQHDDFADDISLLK
Procedure: Human HEK293 cells which are stably transfected with a vector expressing a cDNA of the human APP wt gene (APP695) were used to assess the potency of the compounds in a cellular assay. The cells were seeded in 96-well microtiter plates in cell culture medium (Iscove, plus 10% (v/v) fetal bovine serum, glutamine, penicillin/streptomycin) to about 80% confluence and the compounds were added at a 10× concentration in 1/10 volume of medium without FCS containing 8% DMSO (final concentration of DMSO was kept at 0.8% v/v). After 18-20 hrs incubation at 37° C. and 5% CO2 in a humidified incubator the culture supernatant was harvested for the determination of Aβ40 concentrations. 96 well ELISA plates (e.g., Nunc MaxiSorb) were coated with monoclonal antibody which specifically recognize the C-terminal end of Aβ40^10. After blocking of non-specific binding sites with e.g. 1% BSA and washing, the culture supernatants were added in suitable dilutions together with a horseradish peroxidase-coupled Aβ detection antibody (e.g., antibody 4G8, Senetek, Maryland Heights, Mo.) and incubated for 5 to 7 hrs. Subsequently the wells of the microtiter plate were washed extensively with Tris-buffered saline containing 0.05% Tween 20 and the assay was developed with tetramethylbenzidine/H2O2 in citric acid buffer. After stopping the reaction with one volume 1 N H2SO4 the reaction was measured in an ELISA reader at 450 nm wavelength. The concentrations of Aβ in the culture supernatants were calculated from a standard curve obtained with known amounts of pure Aβ peptide.

hERG channel = target: T2, hERG channel (Homo sapiens, UniProt Q12809); assay: PatchXpress hERG inhibition assay; type: cell-based; settings: @ 1 μM; CHO cells expressing hERG
T2 construct: expressed in transfected cells; host or cells: CHO cells
T2 sequence (Q12809 whole entry): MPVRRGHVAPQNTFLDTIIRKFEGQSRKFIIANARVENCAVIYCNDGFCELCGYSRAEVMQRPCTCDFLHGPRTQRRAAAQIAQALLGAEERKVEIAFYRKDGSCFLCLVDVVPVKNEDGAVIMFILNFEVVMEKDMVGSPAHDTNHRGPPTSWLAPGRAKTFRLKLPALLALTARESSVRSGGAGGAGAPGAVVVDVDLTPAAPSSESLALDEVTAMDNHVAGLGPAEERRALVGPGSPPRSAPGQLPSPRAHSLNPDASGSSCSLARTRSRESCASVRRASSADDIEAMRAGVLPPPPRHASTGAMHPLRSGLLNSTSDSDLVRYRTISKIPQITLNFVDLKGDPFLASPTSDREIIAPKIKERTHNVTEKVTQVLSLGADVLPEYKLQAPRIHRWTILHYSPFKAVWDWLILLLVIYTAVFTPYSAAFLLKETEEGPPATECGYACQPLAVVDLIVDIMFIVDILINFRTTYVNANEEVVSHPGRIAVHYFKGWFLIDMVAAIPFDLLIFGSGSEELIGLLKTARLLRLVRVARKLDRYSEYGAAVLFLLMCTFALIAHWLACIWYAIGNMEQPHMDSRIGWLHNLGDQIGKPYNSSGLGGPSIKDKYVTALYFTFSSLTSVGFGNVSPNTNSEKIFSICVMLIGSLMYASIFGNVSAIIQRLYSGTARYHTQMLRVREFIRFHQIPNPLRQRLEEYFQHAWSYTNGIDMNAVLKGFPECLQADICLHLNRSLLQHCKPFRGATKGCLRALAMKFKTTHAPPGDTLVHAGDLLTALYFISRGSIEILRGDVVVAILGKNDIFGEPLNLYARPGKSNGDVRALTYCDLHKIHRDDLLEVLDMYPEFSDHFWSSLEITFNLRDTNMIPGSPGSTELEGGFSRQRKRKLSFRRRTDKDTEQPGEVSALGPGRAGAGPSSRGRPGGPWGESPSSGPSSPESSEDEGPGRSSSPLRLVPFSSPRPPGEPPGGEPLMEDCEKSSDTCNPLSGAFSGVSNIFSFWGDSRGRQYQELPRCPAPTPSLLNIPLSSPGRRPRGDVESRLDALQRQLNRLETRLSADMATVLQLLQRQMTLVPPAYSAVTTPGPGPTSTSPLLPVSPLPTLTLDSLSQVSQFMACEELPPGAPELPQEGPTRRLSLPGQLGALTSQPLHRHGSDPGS
Procedure: The detailed method to quantify hERG channel inhibition by the automated patch clamp system PatchXpress® 7000A (Molecular Devices, Sunnyvale, Calif.) has been described by Guo et al.^12 In brief, Chinese hamster ovary (CHO) cells transfected with the human ether-a-go-go-related gene (hERG) was cultured in Ex-cell 302 media supplemented with 10% fetal bovine serum, 2 mM glutamine and 0.25 mg/ml geneticin and maintained in a CO2 incubator at 37° C. For patch clamp electrophysiology, the external buffer contained (in mM): 150 NaCl, 10 Hepes, 4 KCl, 1.2 CaCl2, 1 MgCl2, pH 7.4 adjusted with […] and the internal recording solution contained (in mM): 140 KCl, 6 EGTA, 5 Hepes, MgCl2, 5 ATP-Na2, pH 7.2 adjusted with KOH. Once the cell was loaded in the recording chamber and formed a giga ohm seal with the planar glass electrodes (Sealchip™), a whole-cell configuration was achieved by rupturing the cell membrane. The membrane potential was then clamped at −80 mV and the hERG channel activated by a 1-second depolarizing pulse delivered at 0.1 Hz, the hERG current was measured during the 500 ms-repolarizing pulse to −40 mV. After an acceptable hERG current recording was obtained, the cell was first exposed to 0.3% DMSO as the vehicle control, followed by the test article in three ascending, full-log interval concentrations and finally E-4031 at 1 μM (as the positive control) to block the hERG current completely. Each test article was tested on three or more cells and at concentrations up to 30 μM or the solubility limit determined the BD Gentest™ solubility scanner. The inhibition of hERG current at each concentration was normalized to that recorded in the vehicle control, and fitted with Hill equation to calculate IC20 and/or IC50.

[1] = target: T3, recombinant human cathepsin E (Homo sapiens, UniProt P14091); assay: Cathepsin E fluorescent substrate kinetic assay; type: biochemical; settings: pH 4.5
T3 construct: purchased R&D Systems
T3 sequence (P14091 54-396): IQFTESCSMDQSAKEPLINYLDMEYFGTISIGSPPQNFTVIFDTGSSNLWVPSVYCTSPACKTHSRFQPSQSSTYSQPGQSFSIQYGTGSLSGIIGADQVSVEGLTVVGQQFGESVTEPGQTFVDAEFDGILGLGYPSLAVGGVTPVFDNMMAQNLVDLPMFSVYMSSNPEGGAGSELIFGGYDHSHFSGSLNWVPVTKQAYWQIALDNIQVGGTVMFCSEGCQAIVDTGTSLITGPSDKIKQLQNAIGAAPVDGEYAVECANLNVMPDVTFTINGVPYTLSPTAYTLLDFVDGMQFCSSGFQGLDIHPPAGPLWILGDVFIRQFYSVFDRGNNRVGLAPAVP
Text: The MR121 fluorescence assays described below are based on the fact that MR121 forms a non-fluorescent ground state complex with tryptophan. In solution this formation occurs at millimolar concentrations of tryptophan. The mechanism can be used to design a generic biochemical assay for proteases. A substrate peptide is labeled at the N-terminus with tryptophan and at the C-terminus with the fluorophore MR121 (for cathepsin D the 10 amino acid peptide WTSVLMAAPC-MR121 was used; for cathepsin E, MR121-CKLVFFAEDW was used). In absence of protease activity, the substrates remain intact and the MR121 fluorescence is reduced by the high local Trp-concentration. If the substrates are cleaved by the enzymes the MR121 fluorescence is recovered.
The fluorescent substrate cathepsin D and cathepsin E kinetic assays were performed at room temperature in 384-well microtiter plates (black with clear flat bottom, non binding surface plates from Corning) in a final volume of 51 μl. The test compounds were serially diluted in DMSO (15 concentrations, 1/3 dilution steps) and 1 μl of diluted compounds were mixed for 10 min with 40 μl of cathepsin D (from human liver, Calbiochem) diluted in assay buffer (100 mM sodium acetate, 0.05% BSA, pH 5.5; final concentration: 200 nM) or with 40 μl of recombinant human cathepsin E (R&D Systems) diluted in assay buffer (100 mM sodium acetate, 0.05% BSA, pH 4.5; final concentration: 0.01 nM). After addition of 10 μl of the cathepsin D substrate WTSVLMAAPC-MR121 diluted in cathepsin D assay buffer (final concentration: 300 nM) or […] cathepsin E substrate MR121-CKLVFFAEDW diluted in cathepsin E assay buffer (final concentration: 300 nM), the plates were strongly shaken for 2 minutes. The enzymatic reaction was followed in a plate: vision reader (Perkin Elmer) (excitation wavelength: 630 nm; emission: 695 nm) for at least 30 minutes in a kinetic measurement detecting an increase of MR121 fluorescence during the reaction time. The slope in the linear range of the kinetic was calculated and the IC50 of the test compounds were determined using a four parameter equation for curve fitting.

Row | IC50 (BACE1) | IC50 [1] | SMILES | hERG inhibition (hERG channel)
1 | 0.4 nM | 97000 nM | CC#CCOc1cnc(C(=O)Nc2ccc(F)c([C@@]3(C)N=C(N)O[C@@H]4CCC(F)(F)[C@@H]43)c2)cn1 [Example 1, 5-But-2-ynyloxy-pyrazine-2-carboxylic acid [3-((4S,4aR,7aR)-2-amino-5,5-difluoro-4-methyl-4,4a,5,6,7,7a-hexahydro-cyclopenta[e][1,3]oxazin-4-yl)-4-fluoro-phenyl]-amide] | A (A = less than 50% inhibition @ 1 μM)
2 | 2.2 nM | > 200000 nM | C[C@]1(c2cc(NC(=O)c3ccc(C#N)cn3)ccc2F)N=C(N)O[C@@H]2CCCC(F)(F)[C@@H]21 [Example 8, 5-Cyano-pyridine-2-carboxylic acid [3-((4S,4aR,8aR)-2-amino-5,5-difluoro-4-methyl-4a,5,6,7,8,8a-hexahydro-4H-benzo[e][1,3]oxazin-4-yl)-4-fluoro-phenyl]-amide] | A (A = less than 50% inhibition @ 1 μM)
3 | 1.5 nM | 90000 nM | C[C@]1(c2cc(NC(=O)c3ccc(C#N)cn3)ccc2F)N=C(N)O[C@@H]2CCC(F)(F)[C@@H]21 [Example 2, 5-Cyano-pyridine-2-carboxylic acid [3-((4S,4aR,7aR)-2-amino-5,5-difluoro-4-methyl-4,4a,5,6,7,7a-hexahydro-cyclopenta[e][1,3]oxazin-4-yl)-4-fluoro-phenyl]-amide] | A (A = less than 50% inhibition @ 1 μM)
